Earlier results, collected in patent publication EP3807270B1, “NOVEL HETEROARYL HETEROCYCLYL COMPOUNDS FOR THE TREATMENT OF AUTOIMMUNE DISEASE” (F. Hoffmann-La Roche AG, priority 2018, dated 2019).

Target: T1, hTLR7 (Homo sapiens, UniProt Q9NYK1)
T1 sequence (Q9NYK1 27-1049): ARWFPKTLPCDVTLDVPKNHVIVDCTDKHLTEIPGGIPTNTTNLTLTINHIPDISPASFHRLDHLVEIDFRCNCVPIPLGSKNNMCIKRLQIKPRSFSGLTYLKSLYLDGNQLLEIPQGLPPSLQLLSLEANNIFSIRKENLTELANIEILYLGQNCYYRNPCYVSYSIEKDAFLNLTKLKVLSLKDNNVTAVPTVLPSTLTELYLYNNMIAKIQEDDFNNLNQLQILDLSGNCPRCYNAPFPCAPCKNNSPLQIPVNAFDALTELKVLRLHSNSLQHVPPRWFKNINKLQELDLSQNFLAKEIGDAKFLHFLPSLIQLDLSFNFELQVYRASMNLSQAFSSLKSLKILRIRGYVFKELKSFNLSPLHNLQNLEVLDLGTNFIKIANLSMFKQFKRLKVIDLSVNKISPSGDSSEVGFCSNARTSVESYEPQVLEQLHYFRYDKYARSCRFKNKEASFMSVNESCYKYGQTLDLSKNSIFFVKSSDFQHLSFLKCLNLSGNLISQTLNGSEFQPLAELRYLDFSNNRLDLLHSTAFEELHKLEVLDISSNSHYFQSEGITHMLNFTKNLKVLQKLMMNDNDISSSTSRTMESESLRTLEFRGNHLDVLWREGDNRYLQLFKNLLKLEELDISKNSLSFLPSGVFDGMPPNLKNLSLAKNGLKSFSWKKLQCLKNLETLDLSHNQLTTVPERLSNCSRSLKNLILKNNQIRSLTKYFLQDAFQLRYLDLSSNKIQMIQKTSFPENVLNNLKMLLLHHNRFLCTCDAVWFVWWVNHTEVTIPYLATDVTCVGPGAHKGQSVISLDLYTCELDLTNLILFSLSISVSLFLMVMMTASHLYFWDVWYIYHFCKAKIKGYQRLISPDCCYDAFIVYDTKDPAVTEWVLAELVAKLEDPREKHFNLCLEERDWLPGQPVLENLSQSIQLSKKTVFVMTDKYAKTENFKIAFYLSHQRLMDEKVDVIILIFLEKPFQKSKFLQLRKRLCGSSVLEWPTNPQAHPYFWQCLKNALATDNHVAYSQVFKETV
Set-up: host or cells: HEK
Conditions: data disclosed in US20150105370; read-out: HEK/hTLR7 IC50; cited from earlier work

Question: For C[C@@H]1CN(c2ccc(C#N)c3ncccc23)C[C@H](CN2CCN(c3ccncc3)CC2)O1 [ER-888286, reference compound], which IC50 is on record?
Answer: 1370 nM
